Source: patent US20250235507A1, “INHALABLE POROUS MICROSPHERE LOADED WITH RECOMBINANT HUMAN RELAXIN-2 AND PREPARATION METHOD THEREFOR” (SHANDONG UNIVERSITY, priority 2023, published 2025)

Key:
[1] = mice
Method: Real-time fluorescence images were obtained by the small animal in vivo imaging system at regular intervals. The same treatment was carried out using the same dose of rhodamine B-free as the control group.

[2] = tested on: bleomycin-induced pulmonary fibrosis mouse model; assay: Lung histopathology: H&E, Masson trichrome and Sirius red staining; type: in vivo, C57BL/6J mice
Method: (§1) C57BL/6J mice (20±2 g, female) were purchased from Beijing Life River Experimental Animal Technology Co., Ltd, and were housed in specific pathogen-free animal facilities. For the induction of fibrosis, mice were treated with 100 μL of bleomycin (with concentration of 1 mg/mL) at a dose of 5 mg/Kg via tracheal intubation.
(§2) After two weeks of bleomycin administration, mice were divided into four groups. In the RLX@PMs group, porous microspheres loaded with RLX were administered at a single dose of 70 μg/mouse (including RLX) to each mouse via nebulization. Similarly, in the RLX-free group, the RLX-free solution was administered via nebulization at a dose of 5 μg/mouse daily for two weeks. In addition, a blank control group only nebulized with PBS (PBS group) was also set up. Pirfenidone was used as a positive control, and was administered via intragastric gavage to mice at a dose of 300 mg/kg daily for two weeks (PFD group). The weight of mice was recorded once every two days.
In addition to in vivo imaging examination, we also used hematoxylin and eosin (H&E) staining, Masson's trichrome staining and Sirius red staining to detect the histological changes and collagen deposition in the lungs according to the manufacturer's instructions. After the mice were euthanized, the whole lung tissues were collected and fixed in 4% paraformaldehyde overnight. Subsequently, the tissues were subjected to gradient dehydration according to the standard procedure and embedded with paraffin. The lung tissues of mice were embedded in paraffin and cut into 3 μm sections, followed by H&E staining. […] The stained sections were imaged using a VS120 virtual slide microscope, and the severity of interstitial fibrosis was evaluated at 100× magnification by measuring the percentage of blue stained area. […] After staining, the stained sections were scanned by a polarization microscope, and the degree of collagen deposition in the lung was evaluated based on the image. All collagen density data were quantified by ImageJ software.

[3] = tested on: bleomycin-induced pulmonary fibrosis mouse model; assay: Anti-fibrosis effect in bleomycin-induced pulmonary fibrosis mouse model (micro-CT, weight, lung wet weight); type: in vivo
Method: as §1, §2
For further examination, after anesthesia, whole-lung imaging was performed using a micro-computed tomography (micro-CT) imaging system for small animals (scanning parameters: scan resolution, 18 μm; voltage, 70 kV; current, 100 μA). After treatment, all mice were euthanized and tissues were collected for further analysis, and lung coefficient was calculated by the wet weight of lungs.

| Structure (SMILES) | site of deposition (lung versus gastrointestinal tract), fluorescence signals ([1]; nebulized inhalation, in vivo imaging) | time until fluorescence signals disappeared completely ([1]; single inhalation) [weeks] | collagen accumulation / deposition (Masson trichrome staining) ([2]; fibrosis around bronchi, versus PBS group) | airway remodeling, angiogenesis and parenchymal inflammation (lung histopathology) ([2]; increased by bleomycin exposure) | therapeutic effect on collagen deposition (Sirius red staining) ([2]; polarization microscope) | lung structure / fibrosis by micro-CT ([3]; after 4 weeks of treatment) | mortality ([3]; bleomycin mice, PFD 300 mg/kg daily, intragastric) | weight change of mice ([3]; weight recorded every two days) |
| --- | --- | --- | --- | --- | --- | --- | --- | --- |
| CCN(CC)c1ccc2c(-c3ccccc3C(=O)O)c3ccc(=[N+](CC)CC)cc-3oc2c1 [rhodamine B-free, rhodamine B] | higher | ≤ 2 |  |  |  |  |  |  |
| Cc1ccc(=O)n(-c2ccccc2)c1 [Pirfenidone] |  |  | lower than that of the PBS group | attenuated these effects | slight therapeutic effect | a certain degree of fibrosis | died within three weeks | progressive weight loss |
